# Experimental data published in patent US11780827B2, “Substituted 3-phenoxyazetidin-1-yl-pyrazines” (Boehringer Ingelheim International GmbH, priority 2020, dated 2023).
# Columns and labels:
# aldehyde oxidase [1] = biological target: T1, aldehyde oxidase (Homo sapiens, UniProt Q06278); assay: Metabolite formation in pooled human liver cytosol incubations without cofactors; type: in vitro ADME; set-up: key: yes: Metabolite is formed in presence of human liver cytosol in the absence of cofactors as indication of aldehyde oxidase mediated metabolism; Metabolite is not detected in cytosol incubations; details: human liver cytosol 5 mg/ml, 10 μM test compound, 60 min, metabolite of the same line
# T1 construct: endogenous in cells; host or cells: cryopreserved primary human hepatocytes
# T1 sequence (Q06278 1-1338): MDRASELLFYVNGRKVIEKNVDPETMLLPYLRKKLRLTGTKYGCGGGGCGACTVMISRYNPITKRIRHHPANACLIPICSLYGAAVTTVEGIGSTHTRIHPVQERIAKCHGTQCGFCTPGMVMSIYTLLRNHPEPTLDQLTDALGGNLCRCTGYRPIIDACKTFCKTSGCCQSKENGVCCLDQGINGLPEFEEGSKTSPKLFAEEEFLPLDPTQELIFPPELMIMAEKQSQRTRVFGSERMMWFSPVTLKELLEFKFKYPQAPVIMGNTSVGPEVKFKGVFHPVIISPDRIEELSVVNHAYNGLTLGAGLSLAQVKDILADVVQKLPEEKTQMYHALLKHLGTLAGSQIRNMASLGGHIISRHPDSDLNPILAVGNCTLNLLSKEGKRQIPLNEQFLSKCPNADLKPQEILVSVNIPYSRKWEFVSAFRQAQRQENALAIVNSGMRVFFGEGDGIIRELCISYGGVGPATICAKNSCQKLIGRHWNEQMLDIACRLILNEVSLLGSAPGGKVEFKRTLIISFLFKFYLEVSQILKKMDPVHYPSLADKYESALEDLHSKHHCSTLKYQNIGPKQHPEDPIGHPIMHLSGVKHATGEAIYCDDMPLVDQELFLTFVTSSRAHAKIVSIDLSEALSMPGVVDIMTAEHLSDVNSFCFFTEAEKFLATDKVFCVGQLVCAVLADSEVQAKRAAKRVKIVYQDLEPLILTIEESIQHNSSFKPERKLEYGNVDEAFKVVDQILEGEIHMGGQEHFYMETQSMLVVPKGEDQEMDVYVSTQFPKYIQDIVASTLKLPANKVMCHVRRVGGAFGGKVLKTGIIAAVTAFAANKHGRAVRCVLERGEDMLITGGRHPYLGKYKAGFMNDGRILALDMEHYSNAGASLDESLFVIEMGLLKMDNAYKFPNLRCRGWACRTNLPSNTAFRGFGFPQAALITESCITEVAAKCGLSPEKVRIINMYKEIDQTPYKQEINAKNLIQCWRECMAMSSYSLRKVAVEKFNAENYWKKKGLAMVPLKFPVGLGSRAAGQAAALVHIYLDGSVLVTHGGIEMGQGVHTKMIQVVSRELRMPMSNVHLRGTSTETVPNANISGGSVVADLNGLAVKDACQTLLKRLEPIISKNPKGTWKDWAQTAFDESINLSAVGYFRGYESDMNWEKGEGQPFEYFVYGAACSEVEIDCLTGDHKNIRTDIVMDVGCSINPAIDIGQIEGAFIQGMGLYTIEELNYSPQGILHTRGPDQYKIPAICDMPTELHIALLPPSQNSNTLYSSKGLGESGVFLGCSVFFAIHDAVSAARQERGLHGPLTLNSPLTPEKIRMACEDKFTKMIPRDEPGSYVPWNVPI
# Procedure: (§1) In vitro metabolite profiling to evaluate the involvement of aldehyde oxidase in addition to CYP-mediated metabolic pathways is based on the semiquantitative analysis of the formation of oxygenated metabolites in primary human hepatocytes and the reduction in their formation in presence of the specific aldehyde oxidase inhibitor hydralazine. If respective hydralazine-inhibitable metabolites are also formed in human liver cytosol incubations in the absence of any cofactors, involvement of aldehyde oxidase in the metabolism of the respective compound is considered likely.
# The involvement of aldehyde oxidase in the metabolic transformation of the test compound is confirmed at 37° C. with pooled human liver cytosol fractions. The incubations, conducted at a final incubation volume of 60 μl per time point, are composed of phosphate buffer (100 mM, pH 7.4), magnesium chloride (5 mM), and human liver cytosol (5 mg/ml). Following a short preincubation period at 37° C., the reactions are initiated by addition of the test compound, resulting in a final concentration of 10 μM. After 0 and 60 minutes, the incubations are terminated by transferring an aliquot into organic solvent, followed by centrifugation (10000 g, 5 min). The resulting supernatant is used for bioanalysis by liquid chromatography-high resolution mass spectrometry for identification of putative metabolites.
# aldehyde oxidase [2] = biological target: T1, aldehyde oxidase; assay: In vitro metabolite profiling in primary human hepatocytes with or without hydralazine; type: in vitro ADME; details: for % Parent of drug-related material: 1 μM test compound; for Contribution of AO to oxidative metabolism: sum of AO-formed metabolites
# Procedure: as §1
# The involvement of aldehyde oxidase in metabolic transformation of the test compound is investigated using primary human hepatocytes in suspension in presence or absence of the specific aldehyde oxidase inhibitor hydralazine. After recovery from cryopreservation, human hepatocytes are incubated in Dulbecco's modified eagle medium supplemented with 3.5 μg glucagon/500 ml, 2.5 mg insulin/500 ml and 3.75 mg/500 ml hydrocortisone) containing 5% human serum.
# Following a 30 min preincubation in a cell culture incubator (37° C., 10% CO2) with or without 50 μM hydralazine, test compound solution is spiked into the hepatocyte suspension to obtain a final cell density of 1.0*10^6 to 4.0*10^6 cells/mi (depending on the metabolic turnover rate of the compound observed with primary human hepatocytes), a final test compound concentration of 1 μM, and a final DMSO concentration of 0.05%.
# The cells are incubated for six hours (incubator, horizontal shaker) and samples are removed from the incubation after 0, 0.5, 1, 2, 4 or 6 hours, depending on the metabolic turnover rate. Samples are quenched with acetonitrile and pelleted by centrifugation. The supernatant is transferred to a 96-deepwell plate, evaporated under nitrogen and resuspended prior to bioanalysis by liquid chromatography-high resolution mass spectrometry for identification of putative metabolites.
# human GPR52 = biological target: T2, human GPR52 (Homo sapiens, UniProt Q9Y2T5); assay: HTRF assay for direct cAMP measurement; type: cell-based; details: CHO-K1 cells stably expressing recombinant human GPR52, mean EC50
# T2 construct: expressed in transfected cells; host or cells: CHO-K1
# T2 sequence (Q9Y2T5 whole entry): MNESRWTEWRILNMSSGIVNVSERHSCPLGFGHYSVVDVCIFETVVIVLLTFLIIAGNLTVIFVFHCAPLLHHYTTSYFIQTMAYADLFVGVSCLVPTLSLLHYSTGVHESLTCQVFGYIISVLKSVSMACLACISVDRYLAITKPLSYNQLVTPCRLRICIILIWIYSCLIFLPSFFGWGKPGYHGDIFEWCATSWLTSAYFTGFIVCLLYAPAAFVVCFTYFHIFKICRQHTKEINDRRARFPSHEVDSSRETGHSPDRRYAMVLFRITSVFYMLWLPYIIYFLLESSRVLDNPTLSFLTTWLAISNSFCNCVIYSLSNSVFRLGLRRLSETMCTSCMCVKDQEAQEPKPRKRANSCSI
# Procedure: Homogeneous Time-Resolved Fluorescence (HTRF) Assay for Direct cAMP Measurement.
# HTRF cAMP assays were performed using commercially available assay kits according to the manufacturer's instructions (cAMP Dynamic 2 Assay Kit; #62AM4PEJ, Cisbio Bioassays, Bedford, Mass.). An aliquot of CHO-K1 cells stably expressing recombinant human GPR52 is thawed and resuspended in cell buffer (1×PBS (w/o Ca^2+/Mg^2+)) at a density of 4×10^5 cells per mL Test compounds were solubilized in DMSO to 10 mM stock solutions and serially diluted in DMSO using 6-fold dilutions to generate 8-point dose response curves. These serially diluted samples were then diluted 1:50 in compound dilution buffer (1×PBS (w/o Ca^2+/Mg^2+) containing 0.5 mM IBMX, 0.1% BSA) to achieve a 4× stock. The diluted compounds were transferred (5 μL per well) in duplicate to the 384-well assay plate (Optiplate #6007290, PerkinElmer, Waltham, Mass.). Both a positive (reference compound) and negative (non-stimulated vehicle) control are included in each assay run in column 23. The cell suspension was subsequently dispensed into the 384-well assay plates at 15 μL per well (6000 cells) such that the compound was diluted to 1×. […] After a one-hour incubation at room temperature, 10 μL of cAMP D2 reagent followed by 10 μL of cryptate reagent (provided in the Cisbio kit) was added to each well. Plates were then incubated at room temperature for one hour prior to reading. Time-resolved fluorescence measurements were collected on an EnVision® HTRF plate reader (PerkinElmer, Waltham, Mass.). Counts from the plate reader were fit to the cAMP standard curve included on each plate to determine the amount of cAMP in each test well. The % control was calculated based on the positive control set at […]. Dose-response curves were generated from the cAMP data and analyzed using a nonlinear least squares curve-fitting program to obtain EC50 values.
Structure (SMILES),Formation in human liver cytosol incubations [yes/no] (aldehyde oxidase [1]),% Parent of drug-related material (aldehyde oxidase [2]),Contribution of AO to oxidative metabolism (aldehyde oxidase [2]),EC50 (human GPR52)
O=C(Nc1ccnnc1)c1nccnc1N1CC(Oc2cc(F)c(F)c(F)c2)C1 [Example 4],yes,94%,53%,5 nM
Cc1cc(NC(=O)c2nccnc2N2CC(Oc3cc(F)cc(Cl)c3)C2)cnn1 [Example 10],yes,91%,22%,4 nM
CCc1cc(NC(=O)c2nccnc2N2CC(Oc3ccc(F)c(F)c3)C2)cnn1 [Example 21],yes,80%,67%,2 nM
Cc1cc(NC(=O)c2nccnc2N2CC(Oc3ccc(F)c(F)c3)C2)ncn1 [Example 29],yes,96%,36%,5 nM
O=C(Nc1cc(C(F)(F)F)ncn1)c1nccnc1N1CC(Oc2ccc(F)c(F)c2)C1 [Example 46],–,–,–,7 nM

# Other lines, results leading:
Formation in human liver cytosol incubations [yes/no] (aldehyde oxidase [1]),% Parent of drug-related material (aldehyde oxidase [2]),Contribution of AO to oxidative metabolism (aldehyde oxidase [2]),EC50 (human GPR52),Structure (SMILES)
yes,86%,28%,6 nM,Cc1cc(NC(=O)c2nccnc2N2CC(Oc3cc(F)cc(C(F)F)c3)C2)cnn1 [Example 11]
yes,93%,56%,3 nM,Cc1cc(NC(=O)c2nccnc2N2CC(Oc3ccc(F)c(F)c3)C2)cnn1 [Example 12]
yes,15%,15%,9 nM,Cc1cc(NC(=O)c2nccnc2N2CC(Oc3cc(F)cc(F)c3)C2)cnn1 [Example 13]
yes,94%,22%,4 nM,Cc1cc(NC(=O)c2nccnc2N2CC(Oc3cc(F)c(F)c(Cl)c3)C2)cnn1 [Example 14]
yes,71%,71%,5 nM,Cc1cc(NC(=O)c2nccnc2N2CC(Oc3cc(F)c(F)c(F)c3)C2)cnn1 [Example 15]
–,–,–,37 nM,O=C(Nc1ccncn1)c1nccnc1N1CC(Oc2ccc(F)c(Cl)c2)C1 [Example 44]
–,–,–,14 nM,O=C(Nc1cc(C(F)(F)F)ncn1)c1nccnc1N1CC(Oc2ccc(F)c(Cl)c2)C1 [Example 45]
